Data from patent US20260262643A1, “HERBICIDAL BENZOXAZINES” (FMC CORPORATION, priority 2022, published 2026).

Tests used:
galium = test: Test A postemergence; assay type: in vivo, Galium aparine; settings: 1000 g ai/ha, Postemergence; 0 to 100 scale
Outline: (§1)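 Seeds in loam–sand blend received a directed preemergence soil spray of compound in non-phytotoxic solvent with surfactant; postemergence plants (2–10 cm, one- to two-leaf stage) were sprayed with the same formulation. After 10 days in greenhouse, injury was rated visually versus untreated controls, 0 (no effect) to 100 (complete control).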

kochia [1] = test: Test A postemergence; assay type: in vivo, Bassia scoparia; settings: 1000 g ai/ha, Postemergence; 0 to 100 scale
Outline: as §1

pigweed, palmer [2] = test: Test A postemergence; assay type: in vivo, Amaranthus palmeri; settings: 1000 g ai/ha, Postemergence; 0 to 100 scale
Outline: as §1

blackgrass [3] = test: Test A preemergence; assay type: in vivo, Alopecurus myosuroides; settings: 1000 g ai/ha, 0 to 100 scale (0 no effect, 100 complete control), 10 days
Outline: as §1

foxtail, giant [4] = test: Test A preemergence; assay type: in vivo, Setaria faberi; settings: 1000 g ai/ha, 0 to 100 scale (0 no effect, 100 complete control), 10 days
Outline: as §1

pigweed, palmer [5] = test: Test A preemergence; assay type: in vivo, Amaranthus palmeri; settings: 1000 g ai/ha, 0 to 100 scale (0 no effect, 100 complete control), 10 days
Outline: as §1

ryegrass, Italian [6] = test: Test A preemergence; assay type: in vivo, Lolium multiflorum; settings: 1000 g ai/ha, 0 to 100 scale (0 no effect, 100 complete control), 10 days
Outline: as §1

foxtail, giant [7] = test: Test A postemergence; assay type: in vivo, Setaria faberi; settings: 1000 g ai/ha, Postemergence; 0 to 100 scale
Outline: as §1

ryegrass, Italian [8] = test: Test A postemergence; assay type: in vivo, Lolium multiflorum; settings: 1000 g ai/ha, Postemergence; 0 to 100 scale
Outline: as §1

barnyardgrass [9] = test: Test A preemergence; assay type: in vivo, Echinochloa crusgalli; settings: 1000 g ai/ha, 0 to 100 scale (0 no effect, 100 complete control), 10 days
Excerpt: (§2) Seeds of plant species selected from barnyardgrass (Echinochloa crusgalli), blackgrass (Alopecurus myosuroides), corn (Zea mays), foxtail, giant (giant foxtail, Setaria faberi), goosegrass (Eleusine indica), kochia (Bassia scoparia), oat, wild (wild oat, Avena fatua), pigweed, palmer (palmer amaranth, palmer pigweed, Amaranthus palmeri), Pigweed, Redroot (redroot pigweed, Amaranthus retroflexus), ragweed (common ragweed, Ambrosia artemisiifolia), ryegrass, Italian (italian ryegrass, Lolium multiflorum), soybean (Glycine max), and wheat (Triticum aestivum) were planted into a blend of loam soil and sand and treated preemergence with a directed soil spray using test chemicals formulated in a non-phytotoxic solvent mixture which included a surfactant. At the same time, plants selected from these crops and weed species and also galium (catchweed bedstraw, Galium aparine) and horseweed (Erigeron canadensis) were planted in pots containing the same blend of loam soil and sand and treated with postemergence applications of test chemicals formulated in the same manner. Plants ranged in height from 2 to 10 cm and were in the one- to two-leaf stage for the postemergence treatment. Treated plants and untreated controls were maintained in a greenhouse for 10 days, after which time all treated plants were compared to untreated controls and visually evaluated for injury. Plant response ratings, summarized in Table A, are based on a 0 to 100 scale where 0 is no effect and 100 is complete control. A dash (-) response means no test result.

blackgrass [10] = test: Test A postemergence; assay type: in vivo, Alopecurus myosuroides; settings: 1000 g ai/ha, Postemergence; 0 to 100 scale
Outline: as §1

ragweed [11] = test: Test A postemergence; assay type: in vivo, Ambrosia artemisiifolia; settings: 1000 g ai/ha, Postemergence; 0 to 100 scale
Outline: as §1

ragweed [12] = test: Test A preemergence; assay type: in vivo, Ambrosia artemisiifolia; settings: 1000 g ai/ha, 0 to 100 scale (0 no effect, 100 complete control), 10 days
Outline: as §1

barnyardgrass [13] = test: Test A postemergence; assay type: in vivo, Echinochloa crusgalli; settings: 1000 g ai/ha, Postemergence; 0 to 100 scale
Excerpt: as §2

horseweed = test: Test A postemergence; assay type: in vivo, Erigeron canadensis; settings: 1000 g ai/ha, Postemergence; 0 to 100 scale
Outline: as §1

kochia [14] = test: Test A preemergence; assay type: in vivo, Bassia scoparia; settings: 1000 g ai/ha, 0 to 100 scale (0 no effect, 100 complete control), 10 days
Outline: as §1

Compound	Plant response rating, Galium (galium)	Plant response rating, Kochia (kochia [1])	Plant response rating, Pigweed, Palmer (pigweed, palmer [2])	Plant response rating, Blackgrass (blackgrass [3])	Plant response rating, Foxtail, Giant (foxtail, giant [4])	Plant response rating, Pigweed, Palmer (pigweed, palmer [5])	Plant response rating, Ryegrass, Italian (ryegrass, Italian [6])	Plant response rating, Foxtail, Giant (foxtail, giant [7])	Plant response rating, Ryegrass, Italian (ryegrass, Italian [8])	Plant response rating, Barnyardgrass (barnyardgrass [9])	Plant response rating, Blackgrass (blackgrass [10])	Plant response rating, Ragweed (ragweed [11])	Plant response rating, Ragweed (ragweed [12])	Plant response rating, Barnyardgrass (barnyardgrass [13])	Plant response rating, Horseweed (horseweed)	Plant response rating, Kochia (kochia [14])
CCOC(=O)c1cnn(-c2cccc(C(=O)N3C[C@H](C)Oc4c(C)cccc43)c2)c1 [Compound 133]	60	40	30	0	80	40	70	30	60	60	0	40	30	20	0	0
Cc1cccc2c1O[C@@H](C)CN2C(=O)c1cccc(-n2cc(C(F)(F)F)cn2)c1 [Compound 130]	0	0	0	10	0	0	0	0	0	10	0	0	0	0	0	0
